US6825170B2, “6-O-acyl ketolide antibacterials” (Ortho-McNeil Pharmaceutical, Inc., priority 2001, dated 2004)
≈ marks a conversion by molar mass, not a printed value.

Key:
Test in all cases: MIC, microdilution broth method (NCCLS)
Format in all cases: cell-based
Settings in all cases: 35° C., 16-20 hours
[1] = test system: S. pneumoniae ATCC49619
Protocol: (§1) Minimal inhibitory concentration (MIC) has been an indicator of in vitro antibacterial activity widely used in the art. The in vitro antimicrobial activity of the compounds was determined by the microdilution broth method following the test method from the National Committee for Clinical Laboratory Standards (NCCLS). This method is described in the NCCLS Document M7-A4, Vol.17, No.2, “Methods for Dilution Antimicrobial Susceptibility Test for Bacteria that Grow Aerobically—Fourth Edition”, which is incorporated herein by reference.
(§2) In this method two-fold serial dilutions of drug in cation adjusted Mueller-Hinton broth are added to wells in microdilution trays. The test organisms are prepared by adjusting the turbidity of actively growing broth cultures so that the final concentration of test organism after it is added to the wells is approximately 5×10^4 CFU/well.
(§3) Following inoculation of the microdilution trays, the trays are incubated at 35° C. for 16-20 hours and then read. […] The amount of growth in the wells containing the test compound is compared with the amount of growth in the growth-control wells (no test compound) used in each tray. As set forth in Table 1, compounds of the present invention were tested against a variety of Gram positive and Gram negative pathogenic bacteria resulting in a range of activities depending on the organism tested.

[2] = test system: H. influenzae ATCC49247
Protocol: as §1, §2, §3

[3] = test system: E. faecalis ATCC29212
Protocol: as §1, §2, §3

[4] = test system: S. aureus ATCC29213
Protocol: as §1, §2, §3

| SMILES | MIC (D: S. pneumoniae ATCC49619) [1] | MIC (E: H. influenzae ATCC49247) [2] [µg/mL] | MIC (C: E. faecalis ATCC29212) [3] [µg/mL] | MIC (B: S. aureus ATCC29213) [4] [µg/mL] |
| --- | --- | --- | --- | --- |
| CCc1cnc(-c2ccc(C=CCOC(=O)OC3(C)CC(C)C(=O)C(C)C4NC(=O)OC4(C)C(CC)OC(=O)C(C)C(=O)C(C)C3OC3OC(C)CC(N(C)C)C3O)cc2)nc1 (stereo not shown) [Compound 58] | 0.06 µg/mL (≈ 0.0694 µM) | 4 (≈ 4.62 µM) | 0.5 (≈ 0.578 µM) | 0.5 (≈ 0.578 µM) |
| CCC1OC(=O)C(C)C(=O)C(C)C(OC2OC(C)CC(N(C)C)C2O)C(C)(OC(=O)OCC=Cc2ccc(-c3ccc(C)nn3)cc2)CC(C)C(=O)C(C)C2NC(=O)OC12C (stereo not shown) [Compound 61] | 0.03 µg/mL (≈ 0.0353 µM) | 1 (≈ 1.18 µM) | 0.12 (≈ 0.141 µM) | 0.12 (≈ 0.141 µM) |
| CCC1OC(=O)C(C)C(=O)C(C)C(OC2OC(C)CC(N(C)C)C2O)C(C)(OC(=O)OCC=Cc2ccc(-c3ccccn3)s2)CC(C)C(=O)C(C)C2NC(=O)OC12C (stereo not shown) [Compound 63] | 0.06 µg/mL (≈ 0.0713 µM) | 1 (≈ 1.19 µM) | 0.12 (≈ 0.143 µM) | 0.25 (≈ 0.297 µM) |
| CCC1OC(=O)C(C)C(=O)C(C)C(OC2OC(C)CC(N(C)C)C2O)C(C)(OC(=O)OCC=Cc2ccc(-c3ncccn3)s2)CC(C)C(=O)C(C)C2NC(=O)OC12C (stereo not shown) [Compound 64] | 0.03 µg/mL (≈ 0.0356 µM) | 1 (≈ 1.19 µM) | 0.06 (≈ 0.0712 µM) | 0.12 (≈ 0.142 µM) |
| CCC1OC(=O)C(C)C(=O)C(C)C(OC2OC(C)CC(N(C)C)C2O)C(C)(OC(=O)OCC=Cc2ccc(-c3cnccn3)s2)CC(C)C(=O)C(C)C2NC(=O)OC12C (stereo not shown) [Compound 65] | 0.03 µg/mL (≈ 0.0356 µM) | 1 (≈ 1.19 µM) | 0.12 (≈ 0.142 µM) | 0.25 (≈ 0.297 µM) |
| CCC1OC(=O)C(C)C(=O)C(C)C(OC2OC(C)CC(N(C)C)C2O)C(C)(OC(=O)OCC=Cc2cnc(-c3ccccc3)nc2)CC(C)C(=O)C(C)C2NC(=O)OC12C (stereo not shown) [Compound 72] | 0.03 µg/mL (≈ 0.0358 µM) | 2 (≈ 2.39 µM) | 0.06 (≈ 0.0717 µM) | 0.25 (≈ 0.299 µM) |
| CCC1OC(=O)C(C)C(=O)C(C)C(OC2OC(C)CC(N(C)C)C2O)C(C)(OC(=O)OCC=Cc2ccc(-c3cccs3)s2)CC(C)C(=O)C(C)C2NC(=O)OC12C (stereo not shown) [Compound 73] | 0.25 µg/mL (≈ 0.295 µM) | 16 (≈ 18.9 µM) | 1 (≈ 1.18 µM) | 2 (≈ 2.36 µM) |
| CCC1OC(=O)C(C)C(=O)C(C)C(OC2OC(C)CC(N(C)C)C2O)C(C)(OC(=O)OCC=C(C)c2ccc(-c3ncccn3)cc2)CC(C)C(=O)C(C)C2NC(=O)OC12C (stereo not shown) [Compound 76] | 0.03 µg/mL (≈ 0.0353 µM) | 1 (≈ 1.18 µM) | 0.12 (≈ 0.141 µM) | 0.25 (≈ 0.294 µM) |
| CCC1OC(=O)C(C)C(=O)C(C)C(OC2OC(C)CC(N(C)C)C2O)C(C)(OC(=O)OCC#Cc2cc(-c3ccccn3)no2)CC(C)C(=O)C(C)C2NC(=O)OC12C (stereo not shown) [Compound 122] | ≦0.015 μg/mL | 1 (≈ 1.21 µM) | 0.06 (≈ 0.0727 µM) | 0.12 (≈ 0.145 µM) |
| CCC1OC(=O)C(C)C(=O)C(C)C(OC2OC(C)CC(N(C)C)C2O)C(C)(OC(=O)OCCC#Cc2ccc(-c3ncccn3)cc2)CC(C)C(=O)C(C)C2NC(=O)OC12C (stereo not shown) [Compound 137] | 0.03 µg/mL (≈ 0.0353 µM) | 4 (≈ 4.71 µM) | 0.12 (≈ 0.141 µM) | 0.25 (≈ 0.294 µM) |
| CCC1OC(=O)C(C)C(=O)C(C)C(OC2OC(C)CC(N(C)C)C2O)C(C)(OC(=O)OCCCn2cnc3ccccc32)CC(C)C(=O)C(C)C2NC(=O)OC12C (stereo not shown) [Compound 159] | 0.03 µg/mL (≈ 0.0375 µM) | 1 (≈ 1.25 µM) | 0.12 (≈ 0.15 µM) | 0.25 (≈ 0.312 µM) |
| CCC1OC(=O)C(C)C(=O)C(C)C(OC2OC(C)CC(N(C)C)C2O)C(C)(OC(=O)OCC(F)=Cc2ccc(-c3ncccn3)cc2)CC(C)C(=O)C(C)C2NC(=O)OC12C (stereo not shown) [Compound 160] | 0.03 µg/mL (≈ 0.0351 µM) | 1 (≈ 1.17 µM) | 0.06 (≈ 0.0702 µM) | 0.12 (≈ 0.14 µM) |
| CCC1OC(=O)C(C)C(=O)C(C)C(OC2OC(C)CC(N(C)C)C2O)C(C)(OC(=O)OCC(F)=Cc2ccc(-c3cccnn3)cc2)CC(C)C(=O)C(C)C2NC(=O)OC12C (stereo not shown) [Compound 168] | ≦0.015 μg/mL | 0.5 (≈ 0.585 µM) | 0.06 (≈ 0.0702 µM) | 0.12 (≈ 0.14 µM) |
